Patent US20260355212A1 (priority 2022, published 2026)
Like-named read-outs stand apart in the source and are kept apart here.

Columns and labels:
MERS Mpro = MERS Mpro (Middle East respiratory syndrome-related coronavirus, UniProt K9N7C7); test: biochemical; set-up: species or system MERS-CoV
HCoV-229E Mpro = HCoV-229E Mpro (Human coronavirus 229E, UniProt P0C6X1); test: HCoV-229E Mpro enzymatic inhibition assay (fluorescence); format: biochemical
SARS-CoV-1 Mpro = SARS-CoV-1 Mpro (Severe acute respiratory syndrome coronavirus, UniProt P0C6X7); test: biochemical
HCoV-OC43 Mpro = HCoV-OC43 Mpro (Human coronavirus OC43, UniProt P0C6X6); test: HCoV-OC43 Mpro enzymatic inhibition assay (fluorescence); format: biochemical
How it was run: (§1)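 IC50 values derive from variable-slope nonlinear regression of percent inhibition, each point corrected by a compound-plus-substrate background well lacking enzyme. Enzyme, pre-incubated 30 min at room temperature with inhibitor, was given substrate and read fluorimetrically (Ex/Em 340/490 nm) after 60 min at 30 °C.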

HCoV-NL63 Mpro = HCoV-NL63 Mpro (Human coronavirus NL63, UniProt P0C6X5); test: HCoV-NL63 Mpro enzymatic inhibition assay (fluorescence); format: biochemical
How it was run: as §1

SARS-CoV-2 Mpro = SARS-CoV-2 Mpro (Severe acute respiratory syndrome coronavirus 2, UniProt P0DTD1); test: SARS-CoV-2 Mpro enzymatic inhibition assay (fluorescence); format: biochemical
How it was run: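 Recombinant Mpro expressed in E. coli was preincubated 30 min at room temperature with 10-point, 3-fold serially diluted compound in duplicate. Fluorogenic substrate was then added and incubated 60 min at 30° C, and fluorescence read at Ex/Em 340/490 nm. IC50 came from a four-parameter fit of % inhibition.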

HCoV-HKU1 Mpro = HCoV-HKU1 Mpro (Human coronavirus HKU1, UniProt P0C6X2); test: HCoV-HKU1 Mpro enzymatic inhibition assay (fluorescence); format: biochemical
How it was run: as §1

[1] = mean, 25 nM protein, 25 μM substrate, 30 min pre-incubation, 60 min at 30° C., read-out: Mpro_SARS-CoV-2 mean IC50

HCoV-OC43 Mpro, sequence (P0C6X6 3247-3549 limits assumed): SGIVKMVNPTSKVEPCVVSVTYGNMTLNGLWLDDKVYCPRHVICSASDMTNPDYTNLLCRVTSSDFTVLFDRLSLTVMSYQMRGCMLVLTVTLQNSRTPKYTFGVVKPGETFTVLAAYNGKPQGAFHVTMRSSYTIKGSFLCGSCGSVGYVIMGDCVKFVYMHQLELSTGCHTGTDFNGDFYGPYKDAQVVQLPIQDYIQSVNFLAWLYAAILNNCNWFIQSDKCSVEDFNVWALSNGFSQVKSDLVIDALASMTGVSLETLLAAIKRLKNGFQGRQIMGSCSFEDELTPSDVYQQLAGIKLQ
HCoV-229E Mpro, sequence (P0C6X1 2966-3267 limits assumed): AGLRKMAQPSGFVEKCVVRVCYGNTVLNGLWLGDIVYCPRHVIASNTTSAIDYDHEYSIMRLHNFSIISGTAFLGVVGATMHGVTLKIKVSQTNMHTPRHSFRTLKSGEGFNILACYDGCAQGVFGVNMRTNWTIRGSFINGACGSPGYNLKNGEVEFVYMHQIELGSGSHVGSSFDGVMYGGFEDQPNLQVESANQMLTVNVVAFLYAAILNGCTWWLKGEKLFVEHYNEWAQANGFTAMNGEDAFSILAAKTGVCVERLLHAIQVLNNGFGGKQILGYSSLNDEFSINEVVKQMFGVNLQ
HCoV-HKU1 Mpro, sequence (P0C6X2 3335-3637 limits assumed): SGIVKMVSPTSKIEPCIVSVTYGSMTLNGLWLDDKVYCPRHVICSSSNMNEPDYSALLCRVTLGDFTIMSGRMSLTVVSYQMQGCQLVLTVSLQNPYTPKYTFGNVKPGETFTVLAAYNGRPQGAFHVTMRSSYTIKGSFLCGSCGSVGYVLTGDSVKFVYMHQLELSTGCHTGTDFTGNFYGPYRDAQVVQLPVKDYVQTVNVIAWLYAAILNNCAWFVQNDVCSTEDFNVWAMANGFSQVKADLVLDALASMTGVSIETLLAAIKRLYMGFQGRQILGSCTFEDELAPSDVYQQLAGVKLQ
HCoV-NL63 Mpro, sequence (P0C6X5 2940-3242 limits assumed): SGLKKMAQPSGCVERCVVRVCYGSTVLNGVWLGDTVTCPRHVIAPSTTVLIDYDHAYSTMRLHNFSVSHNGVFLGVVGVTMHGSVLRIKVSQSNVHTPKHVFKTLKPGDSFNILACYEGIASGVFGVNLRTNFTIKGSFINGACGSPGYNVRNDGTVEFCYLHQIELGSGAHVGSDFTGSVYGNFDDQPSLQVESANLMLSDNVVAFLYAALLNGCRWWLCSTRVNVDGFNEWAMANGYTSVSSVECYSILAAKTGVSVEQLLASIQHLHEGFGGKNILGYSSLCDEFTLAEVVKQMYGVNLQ
MERS Mpro, sequence (K9N7C7 3248-3553 limits assumed): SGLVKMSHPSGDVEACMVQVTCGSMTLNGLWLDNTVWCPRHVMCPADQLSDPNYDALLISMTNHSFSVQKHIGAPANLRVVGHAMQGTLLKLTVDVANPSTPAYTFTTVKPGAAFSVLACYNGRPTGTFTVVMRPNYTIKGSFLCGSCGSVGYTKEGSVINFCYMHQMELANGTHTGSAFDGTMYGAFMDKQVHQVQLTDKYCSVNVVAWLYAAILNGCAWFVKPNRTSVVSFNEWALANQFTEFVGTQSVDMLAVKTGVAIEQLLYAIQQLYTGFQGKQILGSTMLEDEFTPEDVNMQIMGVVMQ

| SMILES | IC50 (MERS Mpro) [µM] | IC50 (HCoV-229E Mpro) [µM] | IC50 (SARS-CoV-1 Mpro) [µM] | IC50 (HCoV-OC43 Mpro) [µM] | IC50 (HCoV-NL63 Mpro) [µM] | IC50 (SARS-CoV-2 Mpro) [µM] | IC50 (HCoV-HKU1 Mpro) [µM] | IC50 (SARS-CoV-2 Mpro; [1]) [µM] |
| --- | --- | --- | --- | --- | --- | --- | --- | --- |
| O=C[C@H](C[C@@H]1CCNC1=O)NC(=O)[C@@H]1CC2(CC2)CN1C(=O)c1cc2cccc(Cl)c2[nH]1 [Compound 2, (S)-5-(7-chloro-1H-indole-2-carbonyl)-N—((S)-1-oxo-3-((S)-2-oxopyrrolidin-3-yl)propan-2-yl)-5-azaspiro[2.4]heptane-6-carboxamide] | 0.199 | 0.0326 | 0.0425 | 0.0382 | 0.0484 | 0.00984 | 0.0104 | – |
| C[C@H](C(=O)N1C[C@H]2[C@@H]([C@H]1C(=O)N[C@H](C=O)C[C@@H]1CCNC1=O)C2(C)C)c1ccccc1 [Compound 104, (1R,2S,5S)-6,6-Dimethyl-N—((S)-1-oxo-3-((S)-2-oxopyrrolidin-3-yl)propan-2-yl)-3-((S)-2-phenylpropanoyl)-3-azabicyclo[3.1.0]hexane-2-carboxamide] | 0.684 | 0.116 | 0.114 | 0.197 | 0.861 | – | 0.109 | 0.0651 |
| CC1(C)[C@@H]2[C@@H](C(=O)N[C@H](C=O)C[C@@H]3CCNC3=O)N(C(=O)c3cc4c(F)cc(F)cc4[nH]3)C[C@@H]21 [Compound 20, (1R,2S,5S)-3-(4,6-difluoro-1H-indole-2-carbonyl)-6,6-dimethyl-N—((S)-1-oxo-3-((S)-2-oxopyrrolidin-3-yl)propan-2-yl)-3-azabicyclo[3.1.0]hexane-2-carboxamide] | 0.274 | 0.0396 | 0.0404 | 0.055 | 0.0373 | 0.0155 | 0.0164 | – |
| COc1cccc2cc(C(=O)N3C[C@H]4[C@@H]([C@H]3C(=O)N[C@H](C=O)C[C@@H]3CCNC3=O)C4(C)C)[nH]c12 [Compound 91, (1R,2S,5S)-3-(7-Methoxy-1H-indole-2-carbonyl)-6,6-dimethyl-N—((S)-1-oxo-3-((S)-2-oxopyrrolidin-3-yl)propan-2-yl)-3-azabicyclo[3.1.0]hexane-2-carboxamide] | 0.396 | 0.0929 | 0.0833 | 0.11 | 0.215 | – | 0.0611 | 0.0439 |
| CC1(C)[C@@H]2[C@@H](C(=O)N[C@H](C#N)C[C@@H]3CCNC3=O)N(C(=O)C3(c4ccccc4)CCCC3)C[C@@H]21 [Compound 136, (1R,2S,5S)—N—((S)-1-Cyano-2-((S)-2-oxopyrrolidin-3-yl)ethyl)-6,6-dimethyl-3-(1-phenylcyclopentanecarbonyl)-3-azabicyclo[3.1.0]hexane-2-carboxamide] | 8.41 | 3.05 | 0.767 | 3.98 | 13.9 | 0.47 | 1.63 | – |
| O=C[C@H](C[C@@H]1CCNC1=O)NC(=O)[C@@H]1C[C@@H](F)CN1C(=O)c1cc2ccccc2[nH]1 [Compound 98, (2S,4R)-4-fluoro-1-(1H-Indole-2-carbonyl)-N—((S)-1-oxo-3-((S)-2-oxopyrrolidin-3-yl)propan-2-yl)pyrrolidine-2-carboxamide] | 0.518 | 0.057 | 0.206 | 0.081 | 0.105 | 0.0511 | 0.007 | – |
| CC1(C)[C@@H]2[C@@H](C(=O)N[C@H](C=O)C[C@@H]3CCNC3=O)N(C(=O)CN3CCCCCC3)C[C@@H]21 [Compound 55, (1R,2S,5S)-3-(2-(Azepan-1-yl)acetyl)-6,6-dimethyl-N—((S)-1-oxo-3-((S)-2-oxopyrrolidin-3-yl)propan-2-yl)-3-azabicyclo[3.1.0]hexane-2-carboxamide] | 0.317 | 0.0393 | 0.0746 | 0.081 | 0.0702 | 0.0255 | 0.0548 | – |
| C[C@@H]1C[C@@H](C(=O)N[C@H](C=O)C[C@@H]2CCNC2=O)N(C(=O)c2cc3ccccc3[nH]2)C1 [Compound 107, (2S,4R)-1-(1H-Indole-2-carbonyl)-4-methyl-N—((S)-1-oxo-3-((S)-2-oxopyrrolidin-3-yl)propan-2-yl)pyrrolidine-2-carboxamide] | 0.522 | 0.0442 | 0.186 | 0.195 | 0.062 | 0.077 | 0.0465 | – |
| COc1ccc(F)c2[nH]c(C(=O)N3C[C@H]4[C@@H]([C@H]3C(=O)N[C@H](C=O)C[C@@H]3CCNC3=O)C4(C)C)cc12 [Compound 36, (1R,2S,5S)-3-(7-Fluoro-4-methoxy-1H-indole-2-carbonyl)-6,6-dimethyl-N—((S)-1-oxo-3-((S)-2-oxopyrrolidin-3-yl)propan-2-yl)-3-azabicyclo[3.1.0]hexane-2-carboxamide] | 0.245 | 0.0332 | 0.0317 | 0.0427 | 0.0517 | 0.0206 | 0.0357 | – |
| Cc1cccc2[nH]c(C(=O)N3C[C@H]4[C@@H]([C@H]3C(=O)N[C@H](C=O)C[C@@H]3CCNC3=O)C4(C)C)cc12 [Compound 85, (1R,2S,5S)-6,6-Dimethyl-3-(4-methyl-1H-indole-2-carbonyl)-N—((S)-1-oxo-3-((S)-2-oxopyrrolidin-3-yl)propan-2-yl)-3-azabicyclo[3.1.0]hexane-2-carboxamide] | 0.259 | 0.0346 | 0.0482 | 0.0479 | 0.0532 | – | 0.0232 | 0.0367 |
| CC1CCC(CC(=O)N2C[C@H]3[C@@H]([C@H]2C(=O)N[C@H](C=O)C[C@@H]2CCNC2=O)C3(C)C)CC1 (stereo partly drawn) [Compound 52, (1R,2S,5S)-6,6-dimethyl-3-(2-(4-methylcyclohexyl)acetyl)-N—((S)-1-oxo-3-((S)-2-oxopyrrolidin-3-yl)propan-2-yl)-3-azabicyclo[3.1.0]hexane-2-carboxamide] | 0.214 | 0.0314 | 0.0326 | 0.052 | 0.0613 | 0.0246 | 0.025 | – |
| COc1cccc2[nH]c(C(=O)N3CC4(CC4)C[C@H]3C(=O)N[C@H](C=O)C[C@@H]3CCNC3=O)cc12 [Compound 31, (S)-5-(4-Methoxy-1H-indole-2-carbonyl)-N—((S)-1-oxo-3-((S)-2-oxopyrrolidin-3-yl)propan-2-yl)-5-azaspiro[2.4]heptane-6-carboxamide] | 0.188 | 0.0317 | 0.034 | 0.0222 | 0.0493 | 0.0189 | 0.0142 | – |
| CC(C)(C)CCC(=O)N1C[C@H]2[C@@H]([C@H]1C(=O)N[C@H](C=O)C[C@@H]1CCNC1=O)C2(C)C [Compound 73, (1R,2S,5S)-3-(4,4-Dimethylpentanoyl)-6,6-dimethyl-N—((S)-1-oxo-3-((S)-2-oxopyrrolidin-3-yl)propan-2-yl)-3-azabicyclo[3.1.0]hexane-2-carboxamide] | 0.326 | 0.0626 | 0.0631 | 0.0714 | 0.182 | – | 0.0575 | 0.0318 |
| COc1ccc(Cl)c2[nH]c(C(=O)N3C[C@H]4[C@@H]([C@H]3C(=O)N[C@H](C=O)C[C@@H]3CCNC3=O)C4(C)C)cc12 [Compound 28, (1R,2S,5S)-3-(7-chloro-4-methoxy-1H-indole-2-carbonyl)-6,6-dimethyl-N—((S)-1-oxo-3-((S)-2-oxopyrrolidin-3-yl)propan-2-yl)-3-azabicyclo[3.1.0]hexane-2-carboxamide] | 0.224 | 0.0356 | 0.0269 | 0.0432 | 0.0509 | 0.018 | 0.0199 | – |
| CC1(C)[C@@H]2[C@@H](C(=O)N[C@H](C=O)C[C@@H]3CCNC3=O)N(C(=O)c3cc4cc(Cl)ccc4[nH]3)C[C@@H]21 [Compound 89, (1R,2S,5S)-3-(5-Chloro-1H-indole-2-carbonyl)-6,6-dimethyl-N—((S)-1-oxo-3-((S)-2-oxopyrrolidin-3-yl)propan-2-yl)-3-azabicyclo[3.1.0]hexane-2-carboxamide] | 0.395 | 0.0447 | 0.0654 | 0.0885 | 0.0695 | 0.0409 | 0.031 | – |
| CC1(C)[C@@H]2[C@@H](C(=O)N[C@H](C=O)C[C@@H]3CCNC3=O)N(C(=O)c3cc4ccc(F)c(F)c4[nH]3)C[C@@H]21 [Compound 4, (1R,2S,5S)-3-(6,7-difluoro-1H-indole-2-carbonyl)-6,6-dimethyl-N—((S)-1-oxo-3-((S)-2-oxopyrrolidin-3-yl)propan-2-yl)-3-azabicyclo[3.1.0]hexane-2-carboxamide] | 0.198 | 0.0285 | 0.0236 | 0.0408 | 0.0344 | 0.0102 | 0.0268 | – |
